The species named for test [1] is Mus musculus. Put plainly: Selectivity ratio of IC50 for mouse COX1 to IC50 for mouse COX2.
Test [2] addresses T1, Prostaglandin G/H synthase 2 (Mus musculus, UniProt Q05769).
T1 sequence (Q05769 whole entry): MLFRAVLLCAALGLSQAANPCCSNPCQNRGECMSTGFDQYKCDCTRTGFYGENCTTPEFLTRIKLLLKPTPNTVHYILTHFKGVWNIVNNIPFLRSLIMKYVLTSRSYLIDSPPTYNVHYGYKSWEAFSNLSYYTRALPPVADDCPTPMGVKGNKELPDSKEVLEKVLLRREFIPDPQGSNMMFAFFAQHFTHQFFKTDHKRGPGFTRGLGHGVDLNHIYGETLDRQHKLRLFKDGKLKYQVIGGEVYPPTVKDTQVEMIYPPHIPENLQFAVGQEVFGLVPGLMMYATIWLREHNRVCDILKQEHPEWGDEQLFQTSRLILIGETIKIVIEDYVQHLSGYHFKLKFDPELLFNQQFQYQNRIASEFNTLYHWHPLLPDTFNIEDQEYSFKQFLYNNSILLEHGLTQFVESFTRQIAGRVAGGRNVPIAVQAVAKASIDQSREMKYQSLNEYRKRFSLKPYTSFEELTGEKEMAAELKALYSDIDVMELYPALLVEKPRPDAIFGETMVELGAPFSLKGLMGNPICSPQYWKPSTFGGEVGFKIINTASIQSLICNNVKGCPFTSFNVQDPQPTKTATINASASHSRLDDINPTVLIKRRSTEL
Description: Inhibition of COX2 in LPS-stimulated J774 cells assessed as inhibition of PGE2 levels by radioimmunoassay

Test [3] addresses T2, Prostaglandin G/H synthase 1 (Mus musculus, UniProt P22437).
T2 sequence (P22437 whole entry): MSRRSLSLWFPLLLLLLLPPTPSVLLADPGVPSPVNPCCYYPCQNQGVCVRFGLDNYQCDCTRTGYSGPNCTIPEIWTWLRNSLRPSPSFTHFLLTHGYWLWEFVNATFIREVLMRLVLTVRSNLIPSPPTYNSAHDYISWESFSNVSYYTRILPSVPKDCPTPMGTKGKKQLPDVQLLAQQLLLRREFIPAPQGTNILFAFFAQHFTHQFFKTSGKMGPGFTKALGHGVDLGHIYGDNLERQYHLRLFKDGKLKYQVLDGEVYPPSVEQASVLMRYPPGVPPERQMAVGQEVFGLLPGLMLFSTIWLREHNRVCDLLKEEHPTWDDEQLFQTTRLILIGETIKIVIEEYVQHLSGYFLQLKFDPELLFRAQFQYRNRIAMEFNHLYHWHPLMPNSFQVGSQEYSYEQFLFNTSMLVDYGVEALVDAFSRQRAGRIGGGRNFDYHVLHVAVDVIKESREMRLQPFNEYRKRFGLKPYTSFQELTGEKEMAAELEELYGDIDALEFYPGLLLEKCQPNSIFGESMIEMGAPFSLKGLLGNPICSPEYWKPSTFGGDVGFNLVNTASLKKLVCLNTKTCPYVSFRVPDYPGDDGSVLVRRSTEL
The test is described as follows: Inhibition of COX1 in mouse J774 cells assessed as arachidonic acid-induced PGE2 levels by radio immunoassay. The class given is cell-based.

For test [4], the target named is Prostaglandin G/H synthase 1 (Homo sapiens, UniProt P23219). The test is described as follows: Inhibition of COX1 in human whole blood assessed as TXB2 production. The class given is tissue-based.
Chain of Prostaglandin G/H synthase 1 (Homo sapiens, UniProt P23219) (P23219 whole entry): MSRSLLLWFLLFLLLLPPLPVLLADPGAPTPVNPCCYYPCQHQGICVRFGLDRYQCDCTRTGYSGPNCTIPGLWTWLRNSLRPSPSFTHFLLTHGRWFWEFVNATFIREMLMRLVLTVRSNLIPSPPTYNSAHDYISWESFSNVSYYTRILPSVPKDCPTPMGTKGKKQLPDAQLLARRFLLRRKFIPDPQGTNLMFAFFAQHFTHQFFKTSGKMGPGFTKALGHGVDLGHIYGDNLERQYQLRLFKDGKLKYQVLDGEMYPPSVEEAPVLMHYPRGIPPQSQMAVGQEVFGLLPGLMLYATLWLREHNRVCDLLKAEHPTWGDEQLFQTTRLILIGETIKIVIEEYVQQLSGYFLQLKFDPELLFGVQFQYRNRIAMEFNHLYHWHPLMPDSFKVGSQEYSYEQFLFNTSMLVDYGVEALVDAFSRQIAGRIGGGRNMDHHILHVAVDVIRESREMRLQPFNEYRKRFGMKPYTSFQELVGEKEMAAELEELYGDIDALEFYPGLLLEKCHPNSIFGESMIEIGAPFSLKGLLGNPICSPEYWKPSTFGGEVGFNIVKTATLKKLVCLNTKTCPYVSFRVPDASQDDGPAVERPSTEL
Test [5] relates to Rattus norvegicus. The test is described as follows: Antiinflammatory activity against carrageenan-induced hyperalgesia in rat assessed as paw pressure in rat at 20 mg/kg, po after 30 mins. The class given is functional.
Test [6] has as its system Rattus norvegicus. Put plainly: Antiinflammatory activity against carrageenan-induced paw edema in rat at 20 mg/kg, po. Format: functional. On the technique in general: The carrageenan paw model is a standard test of acute inflammation.
Test [7] relates to Mus musculus. The test is described as follows: Analgesic activity against acetic acid induced abdominal constriction in Swiss Albino mouse assessed as number of writhings at 20 mg/kg, po after 10 mins. The class given is functional, Abdomen. For orientation: In writhing tests, fewer writhes than in controls are read as antinociception.
The test system of test [8] is Rattus norvegicus. The test is described as follows: Antiinflammatory activity against carrageenan-induced hyperalgesia in rat assessed as paw pressure in rat at 20 mg/kg, po after 120 mins. Format: functional.
The target in test [9] is T3, Prostaglandin G/H synthase 2 (Homo sapiens, UniProt P35354).
T3 sequence (P35354 whole entry): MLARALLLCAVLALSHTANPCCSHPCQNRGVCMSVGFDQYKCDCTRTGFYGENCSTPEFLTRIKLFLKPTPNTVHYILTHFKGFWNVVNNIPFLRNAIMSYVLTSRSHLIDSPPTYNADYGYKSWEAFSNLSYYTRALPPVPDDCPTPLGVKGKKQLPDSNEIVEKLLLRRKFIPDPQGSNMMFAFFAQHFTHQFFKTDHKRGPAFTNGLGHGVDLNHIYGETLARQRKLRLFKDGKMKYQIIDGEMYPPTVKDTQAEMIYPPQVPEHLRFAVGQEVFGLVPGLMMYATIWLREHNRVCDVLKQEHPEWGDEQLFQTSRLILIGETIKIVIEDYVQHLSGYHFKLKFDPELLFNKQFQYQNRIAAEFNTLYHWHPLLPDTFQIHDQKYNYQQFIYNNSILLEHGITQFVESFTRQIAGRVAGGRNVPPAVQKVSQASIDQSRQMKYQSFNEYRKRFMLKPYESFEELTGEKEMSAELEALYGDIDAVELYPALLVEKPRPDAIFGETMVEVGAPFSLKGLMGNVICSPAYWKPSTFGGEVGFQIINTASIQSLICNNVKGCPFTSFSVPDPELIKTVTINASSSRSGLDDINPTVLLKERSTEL
The test is described as follows: Inhibition of COX2 in LPS-induced monocyte assessed as PGE2 production in human whole blood.

The subject of test [10] is Mus musculus. Put plainly: Analgesic activity against acetic acid induced abdominal constriction in Swiss Albino mouse assessed as number of writhings at 10 mg/kg, po after 10 mins. Format: functional, Abdomen.
Test [11] relates to Rattus norvegicus. Put plainly: Antiinflammatory activity against carrageenan-induced hyperalgesia in rat assessed as paw pressure in rat at 20 mg/kg, po after 60 mins. Format: functional.

Each structure is given as a SMILES string.

By IC50 is commonly meant the concentration that gives 50% inhibition. Turning to `CCOC(=O)Cc1cc(-c2ccc(S(C)(=O)=O)cc2)n(-c2ccc(F)cc2)c1C`, the Ratio IC50 in the test listed under Mus musculus [1] was greater than 10000. The IC50 was 0.01 µM in [2] and greater than 100 µM in test [3].
With `CCOC(=O)C(=O)c1cc(-c2ccc(S(C)(=O)=O)cc2)n(-c2ccc(OC)cc2)c1C`, the Ratio IC50 in the test filed under Mus musculus [1] was greater than 100. Also, the 50% inhibitory concentration (IC50) was 0.94 µM in test [2] and greater than 100 µM in test [3].
Turning to `CCOC(=O)Cc1cc(-c2ccc(S(C)(=O)=O)cc2)n(-c2cccc(F)c2)c1C`, the 50% inhibitory concentration (IC50) in test [4] is 20.4 µM; in [9] it was 2.1 µM; in test [3], greater than 100 µM. Also, the Activity in the test with Rattus norvegicus [5] is 55.2 g; with Rattus norvegicus [6], 95.5%; with Mus musculus [7], 15.7; with Rattus norvegicus [8], 43.4 g; with Mus musculus [10], 28.9; with Rattus norvegicus [11], 49.8 g. Further, the Ratio IC50 in the test listed under Mus musculus [1] is greater than 10000.
As for `CCOC(=O)Cc1cc(-c2ccc(C)cc2)n(-c2ccc(S(C)(=O)=O)cc2)c1C`, the Ratio IC50 in the test listed under Mus musculus [1] is greater than 50. Moreover, the concentration for half-maximal inhibition (IC50) was 1.96 µM in test [2] and greater than 100 µM in [3].
Turning to `CCOC(=O)C(=O)c1cc(-c2ccc(F)c(F)c2)n(-c2ccc(S(C)(=O)=O)cc2)c1C`, the 50% inhibitory concentration (IC50) in test [3] is greater than 100 µM.
Regarding `CCOC(=O)Cc1cc(-c2ccc(F)c(F)c2)n(-c2ccc(S(C)(=O)=O)cc2)c1C`, the Ratio IC50 in the test listed under Mus musculus [1] was greater than 19. The half-maximal inhibitory concentration (IC50) was 5.4 µM in [2] and greater than 100 µM in test [3].
For the compound `CCOC(=O)C(=O)c1cc(-c2ccccc2)n(-c2ccc(S(C)(=O)=O)cc2)c1C`, the IC50 in test [3] was greater than 100 µM.
`CCOC(=O)C(=O)c1cc(-c2ccc(S(C)(=O)=O)cc2)n(-c2ccc(F)c(F)c2)c1C`: the Ratio IC50 in the test listed under Mus musculus [1] is greater than 12. The IC50 in test [2] was 8.4 µM; in [3], greater than 100 µM.
Regarding `CCOC(=O)C(=O)c1cc(-c2ccc(C)cc2)n(-c2ccc(S(C)(=O)=O)cc2)c1C`, the half-maximal inhibitory concentration (IC50) in [3] was greater than 100 µM.
Consider `CCOC(=O)C(=O)c1cc(-c2ccc(F)cc2)n(-c2ccc(S(C)(=O)=O)cc2)c1C`, for which, in [3], the IC50 was greater than 100 µM.
For `CCOC(=O)C(=O)c1cc(-c2ccc(C(F)(F)F)cc2)n(-c2ccc(S(C)(=O)=O)cc2)c1C`, the IC50 in test [3] is greater than 100 µM.
`CCOC(=O)C(=O)c1cc(-c2ccc(S(C)(=O)=O)cc2)n(-c2cccc(F)c2)c1C`: in the test filed under Mus musculus [1], the Ratio IC50 is greater than 100. The half-inhibitory concentration (IC50) in test [2] was 0.9 µM; in test [3], greater than 100 µM.
In the case of `CCOC(=O)Cc1cc(-c2ccccc2)n(-c2ccc(S(C)(=O)=O)cc2)c1C`, the half-inhibitory concentration (IC50) in test [3] is greater than 100 µM.
In the case of `CCOC(=O)Cc1cc(-c2ccc(OC)cc2)n(-c2ccc(S(C)(=O)=O)cc2)c1C`, the Ratio IC50 in the test filed under Mus musculus [1] is greater than 200. Also, the results for the IC50 in [2] and in test [3] were 0.55 µM and greater than 100 µM, respectively.
For `CCOC(=O)Cc1cc(-c2ccc(F)cc2)n(-c2ccc(S(C)(=O)=O)cc2)c1C`, in the test filed under Mus musculus [1], the Ratio IC50 was greater than 250. The results for the IC50 in test [2] and in test [3] were 0.4 µM and greater than 100 µM, respectively.
As for `CCOC(=O)Cc1cc(-c2ccc(C(F)(F)F)cc2)n(-c2ccc(S(C)(=O)=O)cc2)c1C`, the IC50 in test [3] is greater than 100 µM.
With `CCOC(=O)Cc1cc(-c2ccc(S(C)(=O)=O)cc2)n(-c2ccc(F)c(F)c2)c1C`, the Ratio IC50 in the test listed under Mus musculus [1] is greater than 5000. Besides, the IC50 in [3] was greater than 100 µM.
Regarding `CCOC(=O)C(=O)c1cc(-c2ccc(OC)cc2)n(-c2ccc(S(C)(=O)=O)cc2)c1C`, the half-maximal inhibitory concentration (IC50) in [3] is greater than 100 µM.
Consider `CCOC(=O)C(=O)c1cc(-c2ccc(S(C)(=O)=O)cc2)n(-c2ccc(F)cc2)c1C`, for which the Ratio IC50 in the test listed under Mus musculus [1] was greater than 9. For the same compound, the IC50 was 11 µM in [2] and greater than 100 µM in test [3].
With `CCOC(=O)Cc1cc(-c2ccc(S(C)(=O)=O)cc2)n(-c2ccc(OC)cc2)c1C`, in the test listed under Mus musculus [1], the Ratio IC50 was greater than 4000. In addition, the IC50 in test [2] was 0.026 µM; in test [3], greater than 100 µM.
